# In patent publication EP3967319A1, “COMPOSITION FOR SKIN PROTECTION COMPRISING KAEMPFEROL SACCHARIDES COMPOUNDS” (Amorepacific Corporation, priority 2020, dated 2022):
# Key:
# [1] = tested on: GRO, GROα, IL-6, IL-8, MCP-1 to 3 and RANTES; test: Cytokine antibody array of conditioned media of skin equivalents (SASP); assay type: cell-based, human; settings: skin equivalents from either type of senescent NHDFs, BX-795 100 nM, versus vehicle-treated; FIGS. 11A-11B
# Procedure: (§1) PDK1 inhibition inhibits SASP in skin equivalents. 3D skin models (skin equivalents) were prepared from young NHDFs (PDL 12) or senescent NHDFs induced into senescence by doxorubicin and IGF-1 or repeated plating (replicative senescence, PDL 57), and were exposed to DMSO or BX795. The treatment concentrations are as follows: doxorubicin ([…]), IGF-1 (100 ng/mL), BX-795 (100 nM).
# Mean ± SD (n = 3), ***P < 0.001 compared to DMSO control senescent cells by one-way analysis of variance.
# [2] = tested on: 3D skin models (skin equivalents); test: 3D skin models (skin equivalents) from senescent NHDFs, histology and immunohistochemistry; assay type: cell-based, human; settings: BX-795 100 nM, FIGS. 10A-10B
# Procedure: as §1, with “3D” for “PDK1 inhibition inhibits SASP in skin equivalents. 3D”, “57)” for “57),”
# The indicated proteins were detected by immunohistochemistry. The results are from three representative experiments. Scale bar = 50 µm.
# Paraffin samples were dewaxed in xylene and rehydrated through a descending ethanol to water series (3 minutes per solution). […] The sections were then incubated with water/1% H2O2 for 30 minutes to block endogenous peroxidase, rinsed with water and PBS/0.05% Tween 20 for 5 minutes, and incubated with PBS/10% goat serum (Dako, Glostrup, Denmark) for 20 minutes before exposure to the following antibodies overnight at 4 °C; Primary antibodies are: anti-KRT 10 (Biolegend, San Diego, CA), anti-FLG (Abcam), anti-MMP-1(Abcam) and anti-Ki67 (Abcam). […]
# Finally, the sections were dehydrated in graded ethanol, cleared in xylene and mounted in Cytoseal 60 (Thermo Scientific, Waltham, MA). […] Tissue sections were incubated with COL17A1 (Abcam) and laminin-5 (Santa Cruz Biotechnology) in Dako fluorescence mounting medium (Dako) at 4 °C overnight. […]
# [3] = tested on: Human epidermis models (EpiDerm™ EPI-201); test: Improvement of skin barrier in 3D organotypic skin epidermis (immunostaining of barrier markers); assay type: cell-based; settings: old donor epidermis model, 3 µM for 4 days
# Procedure: Human epidermis models (EpiDerm™ EPI-201; […] The human epidermis model derived from the old donor was treated with the kaempferol tetrasaccharide represented by Chemical Formula 1 at 3 µM for 4 days. Paraffin blocks were prepared after fixing with 10% neutral buffered formalin.
# After reacting with anti-KRT 10 (Biolegend, San Diego, CA), anti-FLG (Novus Biologicals, Centennial CO, USA), anti-Involucrin and anti-Ki67 (Abcam) antibodies, the expression of the antibodies was analyzed using a microscope. Specifically, the epidermal tissue derived from the young donor (Young) and the epidermal tissue derived from the old donor (Old) were treated with the test substance and then stained with the antibodies described above. The result is shown in FIG. 4, FIGS. 5A-5B and FIGS. 6A-6C. FIGS. 5A-5B and FIGS. 6A-6C show the result of quantifying the result of FIG. 4.
# [4] = tested on: senescence marker SA-beta-Gal; test: Expression of senescence marker SA-beta gal in senescent skin cells (cellular senescence assay kit); assay type: cell-based, human; settings: senescent NHDF (passage 37), 3 µM for 7 days; control 78± 5.2
# Procedure: Normal human dermal fibroblasts (NHDF; Lonza, Switzerland) were cultured in Dulbecco's modified Eagle's medium (DMEM, GIBCO 1210-0038) containing 10% fetal bovine serum, in a 5% CO2 incubator at 37 °C. Cells at passages 6-9 were denoted as young cells, and they were subcultured by 1:5 subculturing until passage 37 to obtain senescent dermal fibroblasts. The senescent skin cells of (1) were treated with DMSO, the compounds repressed by Chemical Formula 1, 2, 3, 4, 5, 6, 7 and 8, kaempferol 3-O-β-rutinoside (Chemical Formula 9) or kaempferol 7-O-β-D-glucopyranoside (Chemical Formula 10) at 3 µM for 7 days. [drawing 30] [drawing 31] On day 8, the cells were washed with PBS and stained with a fixative and a stain provided together with a cellular senescence assay kit (Cell Biolabs, Inc., San Diego, CA, USA) at 37 °C for 16 hours. On the next day, after washing with PBS and applying a 20% glycerol solution, the number of cells stained green was counted and the degree of expression of the senescence marker SA-beta-Gal was evaluated.
# MMP-1 = MMP-1 ELISA assay in UVB-irradiated HDF cells; assay type: cell-based, human; settings: UVB 15 mJ/cm^2, 2 µM or 3 µM, 48 hours, compared to Chemical Formulas 5 and 7 or retinoic acid (RA), FIG. 3
# Procedure: HDF cells were seeded onto a 24-well plate at a concentration of 2.5x10^4 cells/well and were culture for 24 hours under a cell culturing condition. Then, the cells were cultured for 48 hours after treating with a test substance diluted in FBS-free DMEM. After washing with Dulbecco's phosphate-buffered saline (DPBS) and irradiating UVB (15 mJ/cm^2), the medium was replaced with the test substance (2 µM or 3 µM) diluted in DMEM and the cells were cultured for 48 hours. Then, the supernatant was recovered and the amount of MMP-1 was measured using a human total MMP-1 ELISA kit (R&D Systems).
Compound,degree of expression of the senescence marker SA-beta-Gal (number of cells stained green) [4],effect of inhibiting MMP-1 expression (MMP-1),further results
O=C(NCCCNc1nc(Nc2cccc(NC(=O)N3CCCC3)c2)ncc1I)c1cccs1 [BX795],–,–,"GRO, GROα, IL-6, IL-8, MCP-1 to 3 and RANTES in the conditioned medium [1]: less; epidermal thickness in the skin equivalents ([2]; skin equivalents from senescence-induced NHDFs): preserved epidermal thickness; proliferation marker Ki-67 in the epidermis of the skin equivalents ([2]; skin equivalents from senescent NHDFs): markedly increased"
"C[C@@H]1O[C@@H](OC[C@H]2O[C@@H](Oc3c(-c4ccc(O)cc4)oc4cc(O)cc(O)c4c3=O)[C@H](O[C@@H]3OC[C@@H](O)[C@H](O)[C@H]3O)[C@@H](O)[C@H]2O)[C@H](O)[C@H](O[C@@H]2OC[C@@H](O)[C@H](O)[C@H]2O)[C@H]1O [Chemical Formula 1, kaempferol-3-O-β-D-xylopyranosyl-(1→3)-O-α-L-rhamnopyranosyl-(1→6)-O-β-D-xylopyranosyl-(1→2)-O-β-D-galactopyranoside]",38 ± 10.4,superior effect of inhibiting MMP-1 expression,"epidermal thickness ([3]; FIG. 5A): recovered to levels comparable to those of the young epidermal tissue; expression of the regeneration marker (KI67) ([3]; FIG. 5B): recovered to levels comparable to those of the young epidermal tissue; barrier function (KRT10, FLG, INV) ([3]; FIGS. 6A-6C): recovered to levels comparable to those of the young epidermal tissue"
"C[C@@H]1O[C@@H](OC[C@H]2O[C@@H](Oc3c(-c4ccc(O)cc4)oc4cc(O)cc(O)c4c3=O)[C@H](O[C@@H]3OC[C@@H](O)[C@H](O)[C@H]3O)[C@@H](O)[C@@H]2O)[C@H](O)[C@H](O[C@@H]2OC[C@@H](O)[C@H](O)[C@H]2O)[C@H]1O [Chemical Formula 2, kaempferol-3-O-β-D-xylopyranosyl-(1→3)-O-α-L-rhamnopyranosyl-(1→6)-O-β-D-xylopyranosyl-(1→2)-O-β-D-glucopyranoside]",40 ± 10.4,–,–
"C[C@@H]1O[C@@H](OC[C@H]2O[C@@H](Oc3c(-c4ccc(O)cc4)oc4cc(O)cc(O)c4c3=O)[C@H](O[C@@H]3O[C@H](CO)[C@@H](O)[C@H](O)[C@H]3O)[C@@H](O)[C@H]2O)[C@H](O)[C@H](O[C@@H]2OC[C@@H](O)[C@H](O)[C@H]2O)[C@H]1O [Chemical Formula 3, kaempferol-3-O-β-D-xylopyranosyl-(1→3)-O-α-L-rhamnopyranosyl-(1→6)-O-β-D-glucopyranosyl-(1→2)-O-β-D-galactopyranoside]",42 ± 9.7,superior effect of inhibiting MMP-1 expression,–
"C[C@@H]1O[C@@H](OC[C@H]2O[C@@H](Oc3c(-c4ccc(O)cc4)oc4cc(O)cc(O)c4c3=O)[C@H](O)[C@@H](O)[C@@H]2O)[C@H](O)[C@H](O)[C@H]1O [Kaempferol 3-O-β-rutinoside, kaempferol 3-O-β-rutinoside, reference compound]",81 ± 11.3,–,–
"O=c1c(O)c(-c2ccc(O)cc2)oc2cc(O[C@@H]3O[C@H](CO)[C@@H](O)[C@H](O)[C@H]3O)cc(O)c12 [Kaempferol 7-0-β-D-glucopyranoside, kaempferol 7-O-β-D-glucopyranoside, reference compound]",79± 9.9,–,–
O=c1c(O)c(-c2ccc(O)cc2)oc2cc(O)cc(O)c12 [Kaempferol],80 ± 12.1,–,–
kaempferol-3-O-β-D-xylopyranosyl-(1→3)-O-α-L-rhamnopyranosyl-(1→6)-O-β-D-glucopyranosyl-(1→2)-O-β-D-glucopyranoside [Chemical Formula 4],37 ± 9.1,superior effect of inhibiting MMP-1 expression,–
